Data set [1] relates to gram-positive organisms, Streptococcus group A and Streptococcus beta-hemolytic non-A, and S. aureus, as well as Candida. The settings on record: background reports; free acid or ester used as such, in vitro/topical; cited from earlier work.
In a further data set the test system is S. epidermidis. Put plainly: Broth microdilution MIC of lecithin/chitosan particle compositions. It counts as cell-based. To be noted: for MIC: Staphylococcus epidermidis. The method, then: (§1) Initially, to determine basic characteristics, each active component was separately mixed, generally under agitated conditions, with water, and each was miscible with water. Each, after being mixed with water, was tested in a broth microdilution assay, against a variety of bacteria using amounts of the each of the lauric acid derivatives, ranging from about 0.0009 wt. % to about 8 wt. %. The bacteria included Escherichia coli, and Staphylococcus aureus (including MRSA strains). The minimum inhibitory concentration (MIC) needed to prevent growth of the target bacteria was evaluated based on a method published by Clinical Laboratory Standards Institute (CLSI), broth microdilution method M-07 (M07). […] Each of the samples containing one of the lauric acid derivatives was compared with a positive control, decanoic acid.
(§2) For TABLES 1 to 3, compositions were generally prepared as described above, and as further outlined in this paragraph. For these examples, the active component, as a lauric acid derivative or lauric acid, was suspended in an organic solvent, chloroform, and then mixed with water, under robust agitation. The amount of water to the amount of chloroform was at least about 2:1, and could be as high as 10:1. Chloroform was then evaporated (e.g., under vacuum using a freeze dryer). After removal of the chloroform, a 2.2% lecithin solution in an acetate buffer (e.g., 98 mM acetic acid and 2 mM sodium acetate) was prepared and added, so the final amount of the active component was about 1 part active component mixture and about 9 parts of the 2.2% lecithin solution. Of course, it is noted that other ranges to achieve final amount of the active component as described above (e.g., active component mixture and lecithin solution) may also be utilized. Cholesterol could also be optionally added. The mixture of lecithin and the active component was mixed and sonicated, and then a solution of about 1.5% chitosan was added. Thereafter, the entirety of the mixture containing the lecithin and the active component was further blended, in which a final ratio was about 1 part active component to about 9 parts of the 2.2% lecithin solution to about 10 parts of the 1.5% chitosan solution. The pH was then varied, to a pH of 5, or a pH of 7, or a pH of 9. In some mixtures having a pH of 7, a chemical agent imparting a positive charge to the chitosan was included in a form of glycol chitosan. In these tests, the chemical agent used was glycol. In these examples, the amount of chemical agent, glycol was about one molecule glycol moiety to one molecule chitosan sacharide unit; higher amounts of glycol moieties are also acceptable, while lower amounts of glycol moieties were often found to decrease overall inhibitory activity associated with a composition when formed and tested in vitro. It is noted that negatively charged chitosan containing particles were prepared. […] After mixing, the mixtures could each be filtered through a […] filter. In some tests, the mixtures were sonicated before filtering. Sonication produced small particles. In some studies, particles were freeze dried as a powder (generally, after mixing, sonicating and filtering).
(§3) The positive controls were prepared and evaluated in a similar manner. All prepared samples were tested using a broth microdilution test.
Background: Broth dilution looks for growth in wells or tubes with falling amounts of substance.

In another data set the test system is E. coli. The data set is described as above. Type of data set: cell-based. To be noted: for MIC (mg/ml) for E. coli (chitosan prep. mixture was at pH 5 or at pH 7): prep. mixture pH 5 or pH 7. The method, then:
as §1, §2, §3

For data set [2], the system named is Gram-positive pathogens and Gram-negative pathogens. Put plainly: In vitro inhibitory activity of chitosan- or carrier-containing particles. Type of data set: cell-based.
Source text: as §2, §3
This also occurs when the chitosan- or carrier-containing particle includes an active component that has a log P value that is less than 4 and includes a methyl and/or ethyl side chain (e.g., 12-amino-1-dodecanoic acid methyl ester). […]

Data set [3] is classed as in vivo. To be noted: mice, oral capsules approximately 4 mg active component in chitosan-containing particles, three times per day for seven days. An excerpt:
Laboratory trials have shown that no resistance has developed in pathogens exposed to the compositions described herein, even with long term, repeated exposure (data not shown). In addition, no intrinsic resistance can or has been detected in target pathogens. […] A placebo group is also included, in which a group of 10 mice are given a placebo set of capsules, orally, three times per day and continued for seven days, each of the placebo set of capsules containing similarly prepared chitosan-containing particles without an active component, the preparation being generally as described herein. Initial mice have been infected with Salmonella typhimurium prior to oral delivery of one of the set of capsules. The capsules may be vegetable capsules. The capsules may have an enteric coating. For delivery, a formulation may be prepared in a manner understood in the relevant art. For delivery, a formulation may be in at least any one or more of the following forms: liquid, capsule, dried powder, mist, and the like. For delivery, the formulation will contain pharmaceutical grade materials, including one or more excipients and or fillers for internal and/or topical delivery in sufficient amounts known to those of skill in the relevant art. Flavors, colors, sugars, sugar-substitutes, and the like may also be included in any of the formulations, as is understood to those of skill in the relevant art.

The mark [4] stands for this setting: Table 3, lecithin/chitosan particle composition, prep. mixture pH 5 or pH 7, maximum concentration tested 10 mg/ml, read-out: MIC (mg/ml) S. epidermidis (chitosan prep. mixture at pH 5 or at pH 7).
[5] abbreviates: lecithin/chitosan particle composition, maximum concentration tested 10 mg/ml.
Where [6] appears, read: Table 3, lecithin/chitosan particle composition, prep. mixture pH 5 or pH 7, maximum concentration tested 10 mg/ml.

The values that follow come from patent publication US11351134B2, “Small molecule agents, compositions, and formulations, for internal use, displaying inhibitory activity against gram-positive and/or gram-negative organisms” (NATUREZA, INC., priority 2017, dated 2022).

Read-outs that look alike come from different tables or passages of the source.

For `CCCCCCCCCCCC(=O)O` [lauric acid, dodecanoic acid], the “Inhibitory activity reported in the literature” value (“Inhibitory activity reported” below) in data set [1] is “weak inhibitory activity”. With `CCCCCCCCCCCC(=O)OCC(O)CO` (racemic) [1-lauroyl-rac-glycerol], in the data set with S. epidermidis (read-out: MIC (mg/ml) S. epidermidis (chitosan prep. mixture at pH 5 or at pH 7)), the MIC was 10 mg/mL. `CCCCCCCCCCCC(=O)OCCC(C)C` [isoamyl laurate]: the MIC with S. epidermidis (setting [4]) stood at 10 mg/mL.

`CCCCCCCCCCCC(=O)OCc1ccccc1` [benzyl laurate]: in the data set with S. epidermidis (setting [4]), the MIC stood at 10 mg/mL. The same measure, in the same setting: for `CCCCCCCCCCCC(=O)OCCCCCC` [hexyl laurate] the value was 10 mg/mL. As to `CCCCCCCCCCCC(=O)OCC` [ethyl laurate], the “Inhibitory activity reported” value in data set [1] was “inactive”.

With `CCCCCCCCCCCC(=O)OCCCC` [butyl laurate], the MIC in the data set with S. epidermidis (setting [4]) turned out to be 10 mg/mL.

`CCCCCCCCCCCC(=O)OC` [methyl laurate]: the “Inhibitory activity reported” value in data set [1] is “ineffective”. For the compound sucrose monolaurate, the “MIC (mg/ml) for E. coli (chitosan prep. mixture was at pH 5 or at pH 7)” value in the data set with E. coli (setting [5]) is “— (no inhibitory activity)”. In the data set on E. coli (lecithin/chitosan particle composition, prep. mixture pH 9, maximum concentration tested 10 mg/ml), the “MIC (mg/ml) for E. coli (chitosan prep. mixture was at pH 9)” value came out at 10 mg/ml. In the data set on E. coli (lecithin/glycol chitosan particle composition, prep. mixture pH 7, maximum concentration tested 10 mg/ml), the “MIC (mg/ml) for E. coli (chitosan prep. mixture was at pH 7 with glycol chitosan)” value is listed as 10 mg/ml. Besides, the “MIC (mg/ml) for S. epidermidis (chitosan prep. mixture was at pH 5 or at pH 7)” value in the data set with S. epidermidis (lecithin/chitosan particle composition, prep. mixture pH 5 or pH 7, maximum concentration tested 10 mg/ml) was 10 mg/ml. Further, the “Inhibitory activity against both Gram-positive pathogens and Gram-negative pathogens” value in data set [2] (synthesis (with chitosan) at pH 7 with positively charged chitosan) and in data set [2] (synthesis (with chitosan) at pH 9) was “stronger inhibitory activity as well as broad spectrum activity” throughout. Besides, the “Safety in animal trials” value in data set [3] is given as “no safety concerns”. For the compound `CCCCCCCCCCCC(=O)Oc1ccc([N+](=O)[O-])cc1` [4-nitrophenyl dodecanoate], the MIC with S. epidermidis (setting [4]) stood at 10 mg/mL. Still for that read-out and setting: for `CCCCCCCCCCCC(=O)OCCCCC` [pentyl laurate] the value was 10 mg/mL.

For the compound `CCCCCCCCCCCC(=O)OC(C)C` [isopropyl laurate], in the data set with S. epidermidis (setting [4]), the MIC turned out to be 10 mg/mL.

`O=C(O)CCCCCCCCCCCNc1ccc([N+](=O)[O-])c2nonc12` [12-(7-nitrobenzofurazan-4-ylamino) dodecanoic acid]: the MIC in the data set on S. epidermidis (setting [4]) turned out to be 10 mg/mL. `CCCCCCCCCC(=O)CC(=O)NC1CCCCC1=O` (stereo not shown) [3-oxo-N-(2-oxocyclohexyl) dodecanamide]: the “MIC (mg/ml) S. epidermidis (chitosan prep. mixture at pH 5 or at pH 7)” value in the data set on S. epidermidis (setting [6]) came out at 10 mg/ml. The same measure, in the same setting: for `CCCCCCCCCCCC(=O)OCC(O)CO` (stereo not shown) [monolaurin] the value was 10 mg/ml. Take `CCCCCCCC(=O)O` [octanoic acid, reference compound]: the “MIC (mg/ml) for E. coli (chitosan prep. mixture was at pH 5 or at pH 7)” value in the data set on E. coli (setting [5]) was “— (no inhibitory activity)”. In addition, the “Inhibitory activity against representative Gram-negative bacteria” value with E. coli (particulated compositions manipulated to impart positivity (glycol chitosan at neutral pH, or prepared at pH 9)) was “not found to exhibit inhibitory activity”. Besides, the MIC was found to be 10 mg/mL in the data set on S. epidermidis (setting [4]) and 10 mg/mL with S. epidermidis (lecithin/chitosan particle composition, prep. mixture pH 5 or pH 7, maximum concentration tested 10 mg/ml, read-out: MIC (mg/ml) for S. epidermidis (chitosan prep. mixture was at pH 5 or at pH 7)).
